Source: patent publication US6248736A, “4-oxo-1,4-dihydro-3-quinolinecarboxamides as antiviral agents” (Pharmacia & Upjohn Company, priority 1999, dated 2001)
Where two headings read alike, the source gives them in different places.

Tests used:
HCMV polymerase = biological target: T1, HCMV polymerase (Human cytomegalovirus, UniProt P08546); assay: biochemical
T1 construct: made in house; host or cells: recombinant baculovirus-infected SF-9 cells
Description: (§1) The HCMV polymerase assay is performed using a scintillation proximity assay (SPA) as described in several references, such as N. D. Cook, et al., Pharmaceutical Manufacturing International, pages 49-53 (1992); K. Takeuchi, Laboratory Practice, September issue (1992); U.S. Pat. No. 4,568,649 (1986); which are incorporated by reference herein. Reactions are performed in 96-well plates. The assay is conducted in 100 μl volume with 5.4 mM HEPES (pH 7.5), 11.7 mM KCl, 4.5 mM MgCl2, 0.36 mg/ml BSA, and 90 nM ^3 H-dTTP. Assays are run with and without CHAPS, (3-[(3-Cholamidopropyl)-dimethylammonio]-1-propane-sulfonate) at a final concentration of 2 mM. HCMV polymerase is diluted in enzyme dilution buffer containing 50% glycerol, 250 mM NaCl, 10 mM HEPES (pH 7.5), 100 μg/ml BSA, and 0.01% sodium azide. The HCMV polymerase, which is expressed in recombinant baculovirus-infected SF-9 cells and purified according to literature procedures, is added at 10% (or 10 μl) of the final reaction volume, i.e., 100 μl. Compounds are diluted in 50% DMSO and 10 μl are added to each well. Control wells contain an equivalent concentration of DMSO. Unless noted otherwise, reactions are initiated via the addition of 6 nM biotinylated poly(dA)-oligo(dT) template/primer to reaction mixtures containing the enzyme, substrate, and compounds of interest. Plates are incubated in a 25 C or 37 C H2 O bath and terminated via the addition of 40 μl/reaction of 0.5 M EDTA (pH 8) per well. Reactions are terminated within the time-frame during which substrate incorporation is linear and varied depending upon the enzyme and conditions used, i.e., 30 min. for HCMV polymerase. Ten μl of streptavidin-SPA beads (20 mg/ml in PBS/10% glycerol) are added following termination of the reaction. Plates are incubated 10 min. at 37 C, then equilibrated to room temperature, and counted on a Packard Topcount. Linear regressions are performed and IC50 's are calculated using computer software.
A modified version of the above HCMV polymerase assay is performed as described above, but with the following changes: Compounds are diluted in 100% DMSO until final dilution into assay buffer. In the previous assay, compounds are diluted in 50% DMSO. 4.5 mM dithiotherotol (DTT) is added to the polymerase buffer. […] Other viral polymerase assays are performed using procedures similar to those described above.

HSV polymerase = HSV polymerase (Human herpesvirus 1, UniProt P04293); assay: HSV polymerase assay (procedure similar to the HCMV polymerase assay); format: biochemical
Description: as §1, with “software. […]” for “software.”

VZV polymerase = VZV polymerase (Varicella-zoster virus, UniProt P09252); assay: VZV polymerase assay (procedure similar to the HCMV polymerase assay); format: biochemical
Description: as §1, with “software. […]” for “software.”

[1] = HCMV polymerase, modified SPA, compounds in 100% DMSO, 4.5 mM DTT added

Chain of HSV polymerase (P04293 whole entry): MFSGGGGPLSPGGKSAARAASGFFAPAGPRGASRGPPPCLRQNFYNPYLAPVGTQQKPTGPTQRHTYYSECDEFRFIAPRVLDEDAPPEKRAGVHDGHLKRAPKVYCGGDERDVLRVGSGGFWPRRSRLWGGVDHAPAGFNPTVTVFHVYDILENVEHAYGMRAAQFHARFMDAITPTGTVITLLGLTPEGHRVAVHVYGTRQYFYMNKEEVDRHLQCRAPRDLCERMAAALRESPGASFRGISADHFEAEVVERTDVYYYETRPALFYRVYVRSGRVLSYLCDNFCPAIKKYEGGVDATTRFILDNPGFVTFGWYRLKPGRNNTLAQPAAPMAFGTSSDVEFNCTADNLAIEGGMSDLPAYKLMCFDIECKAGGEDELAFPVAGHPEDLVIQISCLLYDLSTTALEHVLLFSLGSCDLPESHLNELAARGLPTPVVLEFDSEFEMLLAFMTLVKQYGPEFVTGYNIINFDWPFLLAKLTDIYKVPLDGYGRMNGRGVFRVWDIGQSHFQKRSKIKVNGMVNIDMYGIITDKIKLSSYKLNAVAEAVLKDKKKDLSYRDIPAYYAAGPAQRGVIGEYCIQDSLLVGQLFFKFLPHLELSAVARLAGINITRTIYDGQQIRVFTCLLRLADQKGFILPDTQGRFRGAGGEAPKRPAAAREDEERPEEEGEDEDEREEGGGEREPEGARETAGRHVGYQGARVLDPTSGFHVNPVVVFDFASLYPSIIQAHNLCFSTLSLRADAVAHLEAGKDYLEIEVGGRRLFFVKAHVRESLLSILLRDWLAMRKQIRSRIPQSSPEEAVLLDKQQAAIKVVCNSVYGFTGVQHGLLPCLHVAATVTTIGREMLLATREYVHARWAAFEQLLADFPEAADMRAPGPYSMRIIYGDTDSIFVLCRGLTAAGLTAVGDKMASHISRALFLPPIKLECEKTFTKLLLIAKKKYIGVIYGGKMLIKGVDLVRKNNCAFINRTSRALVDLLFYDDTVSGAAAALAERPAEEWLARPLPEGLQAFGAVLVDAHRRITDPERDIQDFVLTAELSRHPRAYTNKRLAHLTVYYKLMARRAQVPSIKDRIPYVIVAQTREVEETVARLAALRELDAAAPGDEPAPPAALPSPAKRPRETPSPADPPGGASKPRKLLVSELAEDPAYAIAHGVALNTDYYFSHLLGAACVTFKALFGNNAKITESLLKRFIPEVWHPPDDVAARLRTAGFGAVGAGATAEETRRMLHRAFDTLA
T1 sequence (P08546 whole entry): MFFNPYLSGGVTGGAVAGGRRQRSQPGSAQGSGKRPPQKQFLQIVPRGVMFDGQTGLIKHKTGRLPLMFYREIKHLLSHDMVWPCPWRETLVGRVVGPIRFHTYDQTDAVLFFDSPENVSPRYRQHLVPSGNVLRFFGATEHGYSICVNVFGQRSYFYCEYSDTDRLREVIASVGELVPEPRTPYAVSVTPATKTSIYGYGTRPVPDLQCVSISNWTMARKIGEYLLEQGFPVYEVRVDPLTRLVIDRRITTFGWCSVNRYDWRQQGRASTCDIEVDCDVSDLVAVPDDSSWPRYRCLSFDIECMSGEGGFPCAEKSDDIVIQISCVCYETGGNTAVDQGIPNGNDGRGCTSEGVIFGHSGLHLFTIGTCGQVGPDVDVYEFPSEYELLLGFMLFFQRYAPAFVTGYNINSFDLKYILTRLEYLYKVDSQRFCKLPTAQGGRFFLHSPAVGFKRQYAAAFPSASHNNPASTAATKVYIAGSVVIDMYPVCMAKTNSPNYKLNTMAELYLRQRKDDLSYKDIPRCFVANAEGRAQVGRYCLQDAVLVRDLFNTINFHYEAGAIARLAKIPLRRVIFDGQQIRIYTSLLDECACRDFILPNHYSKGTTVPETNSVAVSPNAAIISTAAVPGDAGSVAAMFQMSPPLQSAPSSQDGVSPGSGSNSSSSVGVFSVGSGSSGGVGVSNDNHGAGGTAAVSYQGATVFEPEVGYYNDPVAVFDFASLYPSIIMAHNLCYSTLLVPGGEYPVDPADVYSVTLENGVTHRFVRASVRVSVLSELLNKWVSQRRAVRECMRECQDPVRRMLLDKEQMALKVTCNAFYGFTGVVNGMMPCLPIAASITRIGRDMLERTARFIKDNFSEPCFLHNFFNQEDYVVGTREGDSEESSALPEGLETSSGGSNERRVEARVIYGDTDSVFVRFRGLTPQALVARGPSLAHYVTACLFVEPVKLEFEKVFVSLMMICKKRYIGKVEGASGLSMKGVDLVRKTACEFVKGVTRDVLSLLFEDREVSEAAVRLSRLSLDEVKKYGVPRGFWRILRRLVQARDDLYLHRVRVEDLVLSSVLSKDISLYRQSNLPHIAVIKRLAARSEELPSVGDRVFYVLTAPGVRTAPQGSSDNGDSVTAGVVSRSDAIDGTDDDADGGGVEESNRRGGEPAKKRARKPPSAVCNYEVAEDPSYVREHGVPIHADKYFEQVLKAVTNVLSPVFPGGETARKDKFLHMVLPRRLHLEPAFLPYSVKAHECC
Chain of VZV polymerase (P09252 whole entry): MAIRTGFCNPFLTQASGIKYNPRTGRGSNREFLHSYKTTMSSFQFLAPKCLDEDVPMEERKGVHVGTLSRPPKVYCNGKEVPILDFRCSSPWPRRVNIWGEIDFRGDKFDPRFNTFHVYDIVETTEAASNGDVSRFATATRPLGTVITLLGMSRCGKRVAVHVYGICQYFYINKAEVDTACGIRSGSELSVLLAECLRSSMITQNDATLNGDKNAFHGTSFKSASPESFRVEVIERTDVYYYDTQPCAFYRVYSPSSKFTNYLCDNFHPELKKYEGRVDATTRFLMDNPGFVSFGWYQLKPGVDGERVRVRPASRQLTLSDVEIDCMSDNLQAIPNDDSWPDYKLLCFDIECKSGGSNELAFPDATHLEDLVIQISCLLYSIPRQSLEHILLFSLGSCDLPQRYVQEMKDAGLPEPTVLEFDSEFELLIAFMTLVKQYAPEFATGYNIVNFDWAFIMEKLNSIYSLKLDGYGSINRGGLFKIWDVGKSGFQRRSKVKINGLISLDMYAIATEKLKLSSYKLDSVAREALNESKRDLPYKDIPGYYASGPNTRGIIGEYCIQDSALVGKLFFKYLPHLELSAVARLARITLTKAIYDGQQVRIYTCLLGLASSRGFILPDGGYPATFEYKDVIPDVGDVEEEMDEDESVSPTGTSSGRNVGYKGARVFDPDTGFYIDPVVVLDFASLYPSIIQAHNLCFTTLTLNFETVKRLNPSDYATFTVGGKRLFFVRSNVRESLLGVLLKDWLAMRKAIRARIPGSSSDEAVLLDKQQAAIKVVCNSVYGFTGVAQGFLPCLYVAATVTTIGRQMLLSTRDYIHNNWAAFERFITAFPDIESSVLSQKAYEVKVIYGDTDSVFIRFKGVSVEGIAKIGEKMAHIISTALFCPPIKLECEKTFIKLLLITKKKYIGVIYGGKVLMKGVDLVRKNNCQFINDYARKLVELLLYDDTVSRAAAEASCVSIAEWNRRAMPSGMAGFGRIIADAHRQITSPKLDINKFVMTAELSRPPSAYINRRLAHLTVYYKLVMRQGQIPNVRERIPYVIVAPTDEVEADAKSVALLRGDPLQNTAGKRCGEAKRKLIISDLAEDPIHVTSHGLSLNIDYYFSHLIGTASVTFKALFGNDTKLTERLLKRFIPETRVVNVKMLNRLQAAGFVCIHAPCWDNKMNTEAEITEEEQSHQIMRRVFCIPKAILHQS

| Compound | IC50 (HCMV polymerase; [1]) [nM] | IC50 (HSV polymerase) [nM] | IC50 (VZV polymerase) [nM] | IC50 (HCMV polymerase) [nM] |
| --- | --- | --- | --- | --- |
| Cn1cc(C(=O)NCc2ccc(Cl)cc2)c(=O)c2cc(C(C)(C)CCO)ccc21 [Example 1, N-(4-chlorobenzyl)-6-(3-hydroxy-1,1-dimethylpropyl)-1-methyl-4-oxo-1,4-dihydro-3-quinolinecarboxamide] | 500 | 1800 | 2000 | – |
| Cn1cc(C(=O)NCc2ccc(Cl)cc2)c(=O)c2cc(CO)ccc21 [Example 2, N-(4-Chlorobenzyl)-6-(hydroxymethyl)-1-methyl-4-oxo-1,4-dihydro-3-quinolinecarboxamide] | 7800 | – | – | – |
| Cn1cc(C(=O)NCc2ccc(Cl)cc2)c(=O)c2cc(CN3CCOCC3)ccc21 [Example 3, N-(4-Chlorobenzyl)-1-methyl-6-(4-morpholinylmethyl)-4-oxo-1,4-dihydro-3-quinolinecarboxamide] | 400 | 740 | 440 | – |
| O=C(NCc1ccc(Cl)cc1)c1cn(CCO)c2ccc(CCCO)cc2c1=O [Example 4, N-(4-Chlorobenzyl)-1-(2-hydroxyethyl)-6-(3-hydroxypropyl)-4-oxo-1,4-dihydro-3-quinolinecarboxamide] | 370 | – | – | – |
| Cn1cc(C(=O)NCc2ccc(Cl)cc2)c(=O)c2cc(CCCO)ccc21 [Example 5, N-(4-Chlorobenzyl)-6-(3-hydroxypropyl)-1-methyl-4-oxo-1,4-dihydro-3-quinolinecarboxamide] | 480 | 320 | 410 | – |
| CC(C)(C)n1cc(C(=O)NCc2ccc(Cl)cc2)c(=O)c2cc(CCCO)ccc21 [Example 6, 1-(tert-Butyl)-N-(4-chlorobenzyl)-6-(3-hydroxypropyl)-4-oxo-1,4-dihydro-3-quinolinecarboxamide] | – | – | – | 2800 |
| Cn1cc(C(=O)NCc2ccc(Cl)cc2)c(=O)c2cc(CN3CCSCC3)ccc21 [Example 7, N-(4-Chlorobenzyl)-1-methyl-4-oxo-6-(4-thiomorpholinyl-methyl)-1,4-dihydro-3-quinolinecarboxamide] | 2500 | – | – | – |
| Cn1cc(C(=O)NCc2ccc(Cl)cc2)c(=O)c2cc(CN3CCS(=O)(=O)CC3)ccc21 [Example 8, N-(4-chlorobenzyl)-6-[(1,1-dioxo-1',4-thiazinan-4-yl)methyl]-1-methyl-4-oxo-1,4-dihydro-3-quinolinecarboxamide] | 2600 | – | – | – |
| Cn1cc(C(=O)NCc2ccc(Cl)cc2)c(=O)c2cc(CN3CC[S+]([O-])CC3)ccc21 [Example 9, N-(4-chlorobenzyl)-1-methyl-4-oxo-6-[(1-oxo-1',4-thiazinan-4-yl)methyl]-1,4-dihydro-3-quinolinecarboxamide] | 4700 | – | – | – |
| Cn1cc(C(=O)NCc2ccc(Cl)cc2)c(=O)c2cc(CN3CCOCC3)cc(F)c21 [Example 10, N-(4-chlorobenzyl)-8-fluoro-1-methyl-6-(4-morpholinylmethyl)-4-oxo-1,4-dihydro-3-quinolinecarboxamide] | – | – | – | 1000 |
